What was measured:
Type in all cases: biochemical
human Cat L = human Cat L (Homo sapiens (Human), UniProt P07711); assay: Cathepsin enzyme inhibition assay (fluorogenic peptide substrate), Cat L; conditions: enzyme 1 nM, substrate Z-Val-Val-Arg-AMC 20 μM, pH 6.5
Description: (§1) Enzyme activity is measured by observing the increase in fluorescence intensity caused by cleavage of a peptide substrate containing a fluorophore whose emission is quenched in the intact peptide.
(§2) Assay buffer: 100 mM potassium phosphate pH 6.5, EDTA-Na 5 mM, Triton X-100 0.001%, DTT 5 mM.
(§3) Enzymes (all at 1 nM): human and mouse Cathepsin S, Cat K, Cat B, Cat L. Substrate (20 μM): Z-Val-Val-Arg-AMC, except for Cat K which uses Z-Leu-Arg-AMC (both from Bachem).
(§4) Excitation 360 nm, Emission 465 nm.
(§5) Enzyme is added to the substance dilutions in 96-well microtitre plates and the reaction is started with substrate. […] IC50 are calculated by standard methods. Inhibition of human Cat S, mouse Cat S, human Cat K, mouse Cat K, human Cat B, mouse Cat B, human Cat L and mouse Cat L have been measured separately.

human Cat K = human Cat K (Homo sapiens (Human), UniProt P43235); assay: Cathepsin enzyme inhibition assay (fluorogenic peptide substrate), Cat K; conditions: enzyme 1 nM, substrate Z-Leu-Arg-AMC 20 μM, pH 6.5
Chain of human Cat K (P43235 115-329): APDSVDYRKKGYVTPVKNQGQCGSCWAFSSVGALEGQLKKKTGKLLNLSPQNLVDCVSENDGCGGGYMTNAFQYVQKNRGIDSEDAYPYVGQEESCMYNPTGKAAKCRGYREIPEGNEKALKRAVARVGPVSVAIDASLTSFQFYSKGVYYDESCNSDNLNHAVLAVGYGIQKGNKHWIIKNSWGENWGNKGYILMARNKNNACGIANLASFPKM
Description: as §1, §2, §3, §4, §5

human Cat B = human Cat B (Homo sapiens (Human), UniProt P07858); assay: Cathepsin enzyme inhibition assay (fluorogenic peptide substrate), Cat B; conditions: enzyme 1 nM, substrate Z-Val-Val-Arg-AMC 20 μM, pH 6.5
Description: as §1, §2, §3, §4, §5

human Cathepsin S = human Cathepsin S (Homo sapiens (Human), UniProt P25774); assay: Cathepsin enzyme inhibition assay (fluorogenic peptide substrate), Cat S; conditions: enzyme 1 nM, substrate Z-Val-Val-Arg-AMC 20 μM, pH 6.5
Chain of human Cathepsin S (P25774 115-331): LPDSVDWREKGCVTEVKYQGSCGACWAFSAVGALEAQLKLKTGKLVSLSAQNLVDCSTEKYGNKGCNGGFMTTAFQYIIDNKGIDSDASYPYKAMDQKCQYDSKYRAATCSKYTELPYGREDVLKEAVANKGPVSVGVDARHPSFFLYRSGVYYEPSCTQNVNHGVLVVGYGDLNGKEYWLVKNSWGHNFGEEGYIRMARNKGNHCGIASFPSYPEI
Description: as §1, §2, §3, §4, §5

Chain of human Cat L (P07711 114-333): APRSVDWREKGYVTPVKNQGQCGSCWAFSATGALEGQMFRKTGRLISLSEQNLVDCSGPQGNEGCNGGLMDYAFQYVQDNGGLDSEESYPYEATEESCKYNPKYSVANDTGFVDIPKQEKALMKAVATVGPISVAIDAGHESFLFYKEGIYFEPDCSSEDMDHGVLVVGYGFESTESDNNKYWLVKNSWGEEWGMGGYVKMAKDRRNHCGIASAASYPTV

Structure (SMILES) | IC50 (human Cat L) [nM] | IC50 (human Cat K) [nM] | IC50 (human Cat B) [nM] | IC50 (human Cathepsin S) [nM]
CC[C@H](NC(=O)[C@@H]1C[C@@H](S(=O)(=O)c2ccc(N3CCOCC3)cc2Cl)CN1C(=O)C1(c2ccc(Cl)cc2)CC1)C(=O)C(=O)NC1CC1 [Example 56, (2S,4R)-4-(2-chloro-4-morpholinophenylsulfonyl)-1-(1-(4-chlorophenyl)cyclopropanecarbonyl)-N—((S)-1-(cyclopropylamino)-1,2-dioxopentan-3-yl)pyrrolidine-2-carboxamide] | 20.6 | 65.4 | 101 | 2.57
CCCC(C)NC(=O)C(=O)[C@H](CCC)NC(=O)[C@@H]1C[C@@H](S(=O)(=O)c2ccccc2Cl)CN1C(=O)C1(c2ccc(Cl)cc2)CC1 (stereo partly drawn) [Example 37, (2S,4R)-1-(1-(4-chlorophenyl)cyclopropanecarbonyl)-4-(2-chlorophenylsulfonyl)-N-((3S)-1,2-dioxo-1-(pentan-2-ylamino)hexan-3-yl)pyrrolidine-2-carboxamide] | 15.1 | 107 | 246 | 1.02
CC[C@H](NC(=O)[C@@H]1C[C@@H](S(=O)(=O)c2ccccc2Cl)CN1C(=O)C1(c2ncc(Br)cc2F)CC1)C(=O)C(=O)NC1CC1 [Example 23, (2S,4R)-1-(1-(5-bromo-3-fluoropyridin-2-yl)cyclopropanecarbonyl)-4-(2-chlorophenylsulfonyl)-N—((S)-1-(cyclopropylamino)-1,2-dioxopentan-3-yl)pyrrolidine-2-carboxamide] | 42.1 | 299 | 1230 | 2.98
CCC[C@H](NC(=O)[C@@H]1C[C@@H](S(=O)(=O)c2ccccc2Cl)CN1C(=O)C1(c2ccc(I)cc2)CC1)C(=O)C(=O)NC1CC1 [Example 18, (2S,4R)-4-(2-chlorophenylsulfonyl)-N—((S)-1-(cyclopropylamino)-1,2-dioxohexan-3-yl)-1-(1-(4-iodophenyl)cyclopropanecarbonyl)pyrrolidine-2-carboxamide] | 8.4 | 21 | 70.1 | 0.6
CC[C@H](NC(=O)[C@@H]1C[C@@H](S(=O)(=O)c2ccccc2Cl)CN1C(=O)C1(c2ccc(Cl)cc2)CC1)C(=O)C(=O)NCCc1ccc2ccccc2c1 [Example 51, (2S,4R)-1-(1-(4-chlorophenyl)cyclopropanecarbonyl)-4-(2-chlorophenylsulfonyl)-N—((S)-1-(2-(naphthalen-2-yl)ethylamino)-1,2-dioxopentan-3-yl)pyrrolidine-2-carboxamide] | 13 | 159 | 172 | 3.08
CC[C@H](NC(=O)[C@@H]1C[C@@H](S(=O)(=O)c2ccc(OCC(F)(F)F)cc2Cl)CN1C(=O)C1(c2ncc(Cl)cc2F)CC1)C(=O)C(=O)NC1CC1 [Example 10, (2S,4R)-1-(1-(5-chloro-3-fluoropyridin-2-yl)cyclopropanecarbonyl)-4-(2-chloro-4-(2,2,2-trifluoroethoxy)phenylsulfonyl)-N—((S)-1-(cyclopropylamino)-1,2-dioxopentan-3-yl)pyrrolidine-2-carboxamide] | 55.4 | 118 | 829 | 2.88
CCC[C@H](NC(=O)[C@@H]1C[C@@H](S(=O)(=O)c2ccccc2Cl)CN1C(=O)C1(c2ccc(Cl)cc2)CC1)C(=O)C(=O)NCc1ccccc1 [Example 35, (2S,4R)—N—((S)-1-(benzylamino)-1,2-dioxohexan-3-yl)-1-(1-(4-chlorophenyl)cyclopropanecarbonyl)-4-(2-chlorophenylsulfonyl)pyrrolidine-2-carboxamide] | 9.8 | 21.5 | 31 | 1.21
CC(C)C[C@H](NC(=O)[C@@H]1C[C@@H](S(=O)(=O)c2ccccc2Cl)CN1C(=O)C1(c2ccc(Cl)cc2)CC1)C(=O)C(=O)NC1CC1 [Example 29, (2S,4R)-1-(1-(4-chlorophenyl)cyclopropanecarbonyl)-4-(2-chlorophenylsulfonyl)-N—((S)-1-(cyclopropylamino)-5-methyl-1,2-dioxohexan-3-yl)pyrrolidine-2-carboxamide] | 18.4 | 69 | 178 | 1.27
CC[C@H](NC(=O)[C@@H]1C[C@@H](S(=O)(=O)c2ccccc2Cl)CN1C(=O)C1(c2ccc(Cl)cc2)CC1)C(=O)C(=O)NC1CCOCC1 [Example 53, (2S,4R)-1-(1-(4-chlorophenyl)cyclopropanecarbonyl)-4-(2-chlorophenylsulfonyl)-N—((S)-1,2-dioxo-1-(tetrahydro-2H-pyran-4-ylamino)pentan-3-yl)pyrrolidine-2-carboxamide] | 1.7 | 39.3 | 188 | 0.676
CCCC(C)NC(=O)C(=O)[C@H](CC)NC(=O)[C@@H]1C[C@@H](S(=O)(=O)c2ccccc2Cl)CN1C(=O)C1(c2ccc(Cl)cc2)CC1 (stereo partly drawn) [Example 36, (2S,4R)-1-(1-(4-chlorophenyl)cyclopropanecarbonyl)-4-(2-chlorophenylsulfonyl)-N-((3S)-1,2-dioxo-1-(pentan-2-ylamino)pentan-3-yl)pyrrolidine-2-carboxamide] | 16.5 | 155 | 350 | 0.776
CC[C@H](NC(=O)[C@@H]1C[C@@H](S(=O)(=O)c2ccccc2Cl)CN1C(=O)C1(c2ccc(Br)cc2)CC1)C(=O)C(=O)NC1CC1 [Example 15, (2S,4R)-1-(1-(4-bromophenyl)cyclopropanecarbonyl)-4-(2-chlorophenylsulfonyl)-N—((S)-1-(cyclopropylamino)-1,2-dioxopentan-3-yl)pyrrolidine-2-carboxamide] | 8.2 | 44.8 | 98.5 | 0.52
CC[C@H](NC(=O)[C@@H]1C[C@@H](S(=O)(=O)c2ccccc2Cl)CN1C(=O)C1(c2ccc(I)cc2)CC1)C(=O)C(=O)NC1CC1 [Example 17, (2S,4R)-4-(2-chlorophenylsulfonyl)-N—((S)-1-(cyclopropylamino)-1,2-dioxopentan-3-yl)-1-(1-(4-iodophenyl)cyclopropanecarbonyl)pyrrolidine-2-carboxamide] | 10.1 | 30.1 |  | 0.652
CC(C)[C@H](NC(=O)[C@@H]1C[C@@H](S(=O)(=O)c2ccccc2Cl)CN1C(=O)C1(c2ccc(Cl)cc2)CC1)C(=O)C(=O)NC1CC1 [Example 28, (2S,4R)-1-(1-(4-chlorophenyl)cyclopropanecarbonyl)-4-(2-chlorophenylsulfonyl)-N—((S)-1-(cyclopropylamino)-4-methyl-1,2-dioxopentan-3-yl)pyrrolidine-2-carboxamide] | 5.2 |  | 97.3 | 0.328
CCC[C@H](NC(=O)[C@@H]1C[C@@H](S(=O)(=O)c2ccc(Cl)cc2Cl)CN1C(=O)C1(c2ccc(Cl)cc2)CC1)C(=O)C(=O)NC1CC1 [Example 42, (2S,4R)-1-(1-(4-chlorophenyl)cyclopropanecarbonyl)-N—((S)-1-(cyclopropylamino)-1,2-dioxohexan-3-yl)-4-(2,4-dichlorophenylsulfonyl)pyrrolidine-2-carboxamide] |  | 28.7 | 115 | 0.634
CCNC(=O)C(=O)[C@H](CC)NC(=O)[C@@H]1C[C@@H](S(=O)(=O)c2ccccc2Cl)CN1C(=O)C1(c2ccc(Cl)cc2)CC1 [Example 43, (2S,4R)-1-(1-(4-chlorophenyl)cyclopropanecarbonyl)-4-(2-chlorophenylsulfonyl)-N—((S)-1-(ethylamino)-1,2-dioxopentan-3-yl)pyrrolidine-2-carboxamide] | 13.6 |  | 112 | 0.508
CC(C)[C@H](NC(=O)[C@@H]1C[C@@H](S(=O)(=O)c2ccccc2Cl)CN1C(=O)C1(c2ncc(Cl)cc2F)CC1)C(=O)C(=O)NC1CC1 [Example 58, (2S,4R)-1-(1-(5-chloro-3-fluoropyridin-2-yl)cyclopropanecarbonyl)-4-(2-chlorophenylsulfonyl)-N—((S)-1-(cyclopropylamino)-4-methyl-1,2-dioxopentan-3-yl)pyrrolidine-2-carboxamide] | 0.9 | 49.1 | 323 | 
CC[C@H](NC(=O)[C@@H]1C[C@@H](S(=O)(=O)c2ccccc2C(F)(F)F)CN1c1ccccc1[N+](=O)[O-])C(=O)c1nc2ccccc2o1 [Example 5, (2S,4R)-1-(2-Nitro-phenyl)-4-(2-trifluoromethyl-benzenesulfonyl)-pyrrolidine-2-carboxylic acid [(S)-1-(benzooxazole-2-carbonyl)-propyl]-amide] |  |  | 106000 | 1.83
CCCCNC(=O)C(=O)[C@H](CC)NC(=O)[C@@H]1C[C@@H](S(=O)(=O)c2ccccc2Cl)CN1C(=O)C1(c2ccc(Cl)cc2)CC1 [Example 31, (2S,4R)—N—((S)-1-(butylamino)-1,2-dioxopentan-3-yl)-1-(1-(4-chlorophenyl)cyclopropanecarbonyl)-4-(2-chlorophenylsulfonyl)pyrrolidine-2-carboxamide] | 11.2 | 35.6 | 47.8 | 
CC[C@H](NC(=O)[C@@H]1C[C@@H](S(=O)(=O)c2ccc(Cl)cc2C)CN1C(=O)OC(C)(C)C)C(=O)C(=O)NC1CC1 [Example 2, (2S,4R)-tert-butyl 4-(4-chloro-2-methylphenylsulfonyl)-2-((S)-1-(cyclopropylamino)-1,2-dioxopentan-3-ylcarbamoyl)pyrrolidine-1-carboxylate] | 2590 | 9430 | 22600 | 

Reference: patent US8729061B2, “Pyrrolidine derivatives” (Hoffmann-La Roche Inc., priority 2011, dated 2014)
